Patent US20090215710A1, “CARBOHYDRATE BASED TOLL-LIKE RECEPTOR (TLR) ANTAGONISTS” (RELIANCE LIFE SCIENCES PVT. LTD., priority 2007, published 2009)

Legend:
TNF = test: Pre-screen for TNF inhibition activity of synthesized molecules (Table 1); format: cell-based
[1] = Cell viability in pre-screen (Table 1); format: cell-based

| Molecule | % TNF Inhibition (TNF; 1 uM) [%] | % TNF Inhibition (TNF; 10 uM) [%] | % TNF Inhibition (TNF; 50 uM) [%] | % TNF Inhibition (TNF; 100 uM) [%] | % Viability ([1]; 1 uM) [%] | % Viability ([1]; 10 uM) [%] | % Viability ([1]; 50 uM) [%] | % Viability ([1]; 100 uM) [%] |
| --- | --- | --- | --- | --- | --- | --- | --- | --- |
| COc1ccc(OC2OC3COC(c4ccccc4)OC3C(OC3OC(COC(=O)CCl)C(OC(=O)CCl)C(OC(C)=O)C3OC(C)=O)C2NC(=O)C(Cl)(Cl)Cl)cc1 [RSCL-0631, p-Methoxy phenyl-O-(2,3-di-O-acetyl-4,6-di-O-chloroacetyl-β-D-glucopyranosyl)-(1-3)-2-deoxy-2-trichloroacetamido-4,6-O-benzylidene-α-D-glucopyranoside] | 77 | 38 | 92 | 99 | 95 | 70 | 20 | 8 |
| CC(=O)CCC(=O)OC[C@H]1O[C@@H](O[C@H]2[C@@H]3OC(c4ccccc4)OC[C@H]3OC(O)[C@@H]2NC(=O)C(Cl)(Cl)Cl)[C@H](OC(C)=O)[C@@H](OC(C)=O)[C@@H]1OC(=O)CCl (stereo partly drawn) [RSCL-0627, 2,3-Di-O-acetyl-4-O-chloroacetyl-6-O-levulinoyl-β-D-glucopyranosyl-(1-3)-2-deoxy-2-trichloroacetamido-4,6-O-benzylidene-α/β-D-glucopyranoside] | 0 | 80 | 104 | 100 | 105 | 90 | 33 | 13 |
| p-Methoxy phenyl-2-deoxy-2-trichloroacetamido-4,6-O-benzylidene-β-D-glucopyranosyl)-(1-4)-O-(2,3-di-O-acetyl-6-O-levulinoyl-β-D-glucopyranoside [RSCL-0635] | 0 | 0 | 0 | 0 | 97 | 89 | 82 | 81 |
| COc1ccc(O[C@H]2O[C@@H]3COC(c4ccccc4)O[C@H]3[C@H](O)[C@H]2NC(=O)C(Cl)(Cl)Cl)cc1 (stereo partly drawn) [RSCL-0400, 1-O-(p-Methoxyphenyl)-2-deoxy-2-trichloroacetamido-4,6-O-benzylidene-α-D-glucopyranoside] | 0 | 0 | 0 | 0 | 93 | 82 | 70 | 63 |
| COc1ccc(O[C@H]2O[C@@H]3COC(c4ccccc4)O[C@H]3[C@H](O[C@@H]3O[C@H](COC(=O)CCl)[C@@H](OC(C)=O)[C@H](OC(C)=O)[C@H]3OC(C)=O)[C@H]2NC(=O)C(Cl)(Cl)Cl)cc1 (stereo partly drawn) [RSCL-0630, p-Methoxy phenyl-O-(2,3,4-tri-O-acetyl-6-O-chloroacetyl-β-D-glucopyranosyl)-(1-3)-2-deoxy-2-trichloroacetamido-4,6-O-benzylidene-α-D-glucopyranoside] | 31 | 36 | 61 | 0 | 95 | 88 | 85 | 81 |
| COc1ccc(O[C@@H]2O[C@H](COC(=O)CCC(C)=O)[C@@H](OC(=O)CCl)[C@H](OC(C)=O)[C@H]2OC(C)=O)cc1 [RSCL-0393, 1-O-(p-Methoxyphenyl)-2,3-di-O-acetyl-4-O-chloroacetyl-6-O-levulinoyl-β-D-glucopyranoside] | 2 | 13 | 18 | 76 | 84 | 85 | 81 | 86 |
| COc1ccc(O[C@H]2O[C@@H]3COC(c4ccccc4)O[C@H]3[C@H](O[C@@H]3O[C@H](CO)[C@@H](OC(=O)CCl)[C@H](OC(C)=O)[C@H]3OC(C)=O)[C@H]2NC(=O)C(Cl)(Cl)Cl)cc1 (stereo partly drawn) [RSCL-0629, p-Methoxy phenyl-O-(2,3-di-O-acetyl-4-O-chloroacetyl-β-D-glucopyranosyl)-(1-3)-2-deoxy-2-trichloroacetamido-4,6-O-benzylidene-α-D-glucopyranoside] | 0 | 94 | 102 | 100 | 99 | 57 | 13 | 11 |
| COc1ccc(O[C@@H]2O[C@@H]3COC(c4ccccc4)O[C@H]3[C@H](O)[C@H]2O)cc1 (stereo partly drawn) [RSCL-0370, 1-O-(p-Methoxyphenyl)-4,6-O-benzylidene-β-D-glucopyranoside] | 0 | 0 | 0 | 16 | 115 | 120 | 108 | 107 |
| COc1ccc(O[C@@H]2O[C@H](COC(C)=O)[C@@H](OC(C)=O)[C@H](OC(C)=O)[C@H]2OC(C)=O)cc1 [RSCL-0367, 1-O-(p-Methoxyphenyl)-2,3,4,6-tetra-O-acetyl-β-D-Glucopyranoside] | 0 | 0 | 0 | 0 | 114 | 118 | 105 | 116 |
| COc1ccc(O[C@H]2O[C@@H]3COC(c4ccccc4)O[C@H]3[C@H](O[C@@H]3O[C@H](CO)[C@@H](OC(C)=O)[C@H](OC(C)=O)[C@H]3OC(C)=O)[C@H]2NC(=O)C(Cl)(Cl)Cl)cc1 (stereo partly drawn) [RSCL-0626, p-Methoxy phenyl-O-(2,3,4-tri-O-acetyl-β-D-glucopyranosyl)-(1-3)-2-deoxy-2-trichloroacetamido-4,6-O-benzylidene-α-D-glucopyranoside] | 39 | 43 | 13 | 52 | 97 | 92 | 95 | 89 |
| COc1ccc(O[C@H]2O[C@@H]3COC(c4ccccc4)O[C@H]3[C@H](O[C@@H]3O[C@H](COC(=O)CCC(C)=O)[C@@H](OS(=O)(=O)O)[C@H](OC(C)=O)[C@H]3OC(C)=O)[C@H]2NC(=O)C(Cl)(Cl)Cl)cc1 (stereo partly drawn) [RSCL-0621, p-Methoxy phenyl-O-(2,3-di-O-acetyl-4-O-sulfo-6-O-levulinoyl-β-D-glucopyranosyl)-(1-3)-2-deoxy-2-trichloroacetamido-4,6-O-benzylidene-α-D-glucopyranoside] | 36 | 38 | 49 | 66 | 90 | 95 | 98 | 96 |
| COc1ccc(O[C@H]2O[C@@H]3COC(c4ccccc4)O[C@H]3[C@H](O[C@@H]3O[C@H](COC(=O)CCC(C)=O)[C@@H](O)[C@H](OC(C)=O)[C@H]3OC(C)=O)[C@H]2NC(=O)C(Cl)(Cl)Cl)cc1 (stereo partly drawn) [RSCL-0440, p-Methoxy phenyl-O-(2,3-di-O-acetyl-6-O-levulinoyl-β-D-glucopyranosyl)-(1-3)-2-deoxy-2-trichloroacetamido-4,6-O-benzylidene-α D-glucopyranoside] | 34 | 42 | 46 | 47 | 114 | 115 | 129 | 119 |
| 2,3-Di-O-acetyl-4-O-chloroacetyl-6-O-levulinoyl-β-D-glucopyranosyl)-(1-3)-2-deoxy-2-trichloroacetamido-α/β-D-glucopyranoside [RSCL-0632] | 0 | 0 | 0 | 30 | 115 | 113 | 94 | 84 |
| COc1ccc(O[C@H]2O[C@@H]3COC(c4ccccc4)O[C@H]3[C@H](O[C@@H]3O[C@H](COC(=O)CCC(C)=O)[C@@H](OC(C)=O)[C@H](OC(C)=O)[C@H]3OC(C)=O)[C@H]2NC(=O)C(Cl)(Cl)Cl)cc1 (stereo partly drawn) [RSCL-0625, p-Methoxy phenyl-O-(2,3,4-tri-O-acetyl-6-O-levulinoyl-β-D-glucopyranosyl)-(1-3)-2-deoxy-2-trichloroacetamido-4,6-O-benzylidene-α-D-glucopyranoside] | 31 | 27 | 22 | 31 | 90 | 96 | 99 | 97 |
| COc1ccc(O[C@H]2O[C@@H]3COC(c4ccccc4)O[C@H]3[C@H](O[C@@H]3O[C@H](CO)[C@@H](O)[C@H](OC(C)=O)[C@H]3OC(C)=O)[C@H]2NC(=O)C(Cl)(Cl)Cl)cc1 (stereo partly drawn) [RSCL-0628, p-Methoxy phenyl-O-(2,3-di-O-acetyl-β-D-glucopyranosyl)-(1-3)-2-deoxy-2-trichloroacetamido-4,6-O-benzylidene-α-D-glucopyranoside] | 0 | 92 | 102 | 100 | 89 | 60 | 10 | 8 |
